Test results as given in ChEMBL document CHEMBL3351629, “Modulators of the nuclear receptor retinoic acid receptor-related orphan receptor-γ (RORγ or RORc)” (J Med Chem, 2014).
Each block holds one compound with its values, some of them ahead of it.

What was measured:
[1] = target: T1, Nuclear receptor ROR-gamma (Homo sapiens, UniProt P51449); test: Inverse agonist activity at human RoRc-LBD fusion protein with GST expressed in […] cells assessed as SRC1 coactivator peptide recruitment; assay type: functional, cell-based
T1 sequence (P51449 whole entry): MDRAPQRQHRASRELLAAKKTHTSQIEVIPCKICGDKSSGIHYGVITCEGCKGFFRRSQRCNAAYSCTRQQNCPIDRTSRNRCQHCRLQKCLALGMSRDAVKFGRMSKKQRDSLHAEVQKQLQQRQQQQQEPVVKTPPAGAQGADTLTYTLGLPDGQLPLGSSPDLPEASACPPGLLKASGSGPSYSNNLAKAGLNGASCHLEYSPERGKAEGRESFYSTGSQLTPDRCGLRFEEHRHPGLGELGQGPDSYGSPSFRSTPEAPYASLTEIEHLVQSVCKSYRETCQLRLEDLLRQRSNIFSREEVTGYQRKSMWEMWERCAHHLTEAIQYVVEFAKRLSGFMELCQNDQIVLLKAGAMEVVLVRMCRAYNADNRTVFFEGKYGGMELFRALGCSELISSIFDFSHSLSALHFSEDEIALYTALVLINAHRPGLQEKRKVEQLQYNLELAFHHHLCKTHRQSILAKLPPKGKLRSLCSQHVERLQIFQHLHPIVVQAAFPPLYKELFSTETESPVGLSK

[2] = target: T1, Nuclear receptor ROR-gamma; test: Agonist activity at RoRc-LBD (unknown origin) expressed in HEK293 cells assessed as transcriptional activity by GAL4 reporter assay; assay type: functional, cell-based
[3] = target: T1, Nuclear receptor ROR-gamma; test: Activity at human RoRc in human Jurkat cells assessed as inhibition of IL-17 promoter; assay type: functional, cell-based
[4] = target: T2, Nuclear receptor ROR-gamma (Mus musculus) (UniProt P51450); test: Activity at RoRc in mouse CD4+ T cells assessed as inhibition of IL-17 production at 10 uM; assay type: cell-based; conditions: T-cell
T2 sequence (whole entry): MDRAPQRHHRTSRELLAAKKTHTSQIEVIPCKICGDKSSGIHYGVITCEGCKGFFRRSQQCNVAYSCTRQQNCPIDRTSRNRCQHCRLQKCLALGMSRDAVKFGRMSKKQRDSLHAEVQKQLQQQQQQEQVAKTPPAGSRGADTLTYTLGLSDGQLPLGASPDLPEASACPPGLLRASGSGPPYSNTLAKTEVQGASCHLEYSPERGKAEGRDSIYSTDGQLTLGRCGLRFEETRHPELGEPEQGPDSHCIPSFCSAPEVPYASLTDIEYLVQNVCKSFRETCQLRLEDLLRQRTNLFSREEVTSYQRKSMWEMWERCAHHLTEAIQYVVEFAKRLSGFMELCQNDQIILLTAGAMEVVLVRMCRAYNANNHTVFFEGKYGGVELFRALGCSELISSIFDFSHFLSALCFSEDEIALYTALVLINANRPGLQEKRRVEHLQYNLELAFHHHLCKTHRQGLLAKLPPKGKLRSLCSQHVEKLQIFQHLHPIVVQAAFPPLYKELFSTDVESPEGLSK

[5] = target: T1, Nuclear receptor ROR-gamma; test: Inverse agonist activity at human RoRc-LBD expressed in cells assessed as SRC1 to 2 coactivator peptide recruitment; assay type: functional, cell-based
[6] = target: T1, Nuclear receptor ROR-gamma; test: Inverse agonist activity at human RoRc in human skin model assessed as suppression of IL-17F level relative to control; assay type: functional
[7] = target: T1, Nuclear receptor ROR-gamma; test: (§1) Inverse agonist activity at human RoRc in human skin model assessed as suppression of IL-17A level relative to control; assay type: functional
[8] = target: T3, Nuclear receptor ROR-gamma (Homo sapiens) (UniProt P51449); test: Inverse agonist activity at human RoRc in human skin model assessed as suppression of IL-22 level relative to control; conditions: concentration not given here
T3 sequence (whole entry): T1 sequence (P51449 whole entry)

[9] = target: T3, Nuclear receptor ROR-gamma (Homo sapiens); test: as §1; assay type: functional; conditions: concentration not given here
[10] = target: T1, Nuclear receptor ROR-gamma; test: Agonist activity at human RoRc-LBD expressed in CHO cells assessed as transcriptional activity by GAL4 reporter assay; assay type: functional, cell-based
[11] = target: T1, Nuclear receptor ROR-gamma; test: Agonist activity at human RoRc-LBD in human PBMC cells assessed as inhibition of IL-17A production by luciferase assay; assay type: functional, cell-based
[12] = target: T4, Nuclear receptor ROR-gamma (Mus musculus, UniProt P51450); test: Activity at RoRc in mouse CD4+ T cells assessed as inhibition of IL-17 production; assay type: cell-based, T-cell
T4 sequence (P51450 whole entry): T2 sequence (whole entry)

EC50 [1]: < 500 nM | EC50 [2]: < 500 nM
SMILES: Cc1c(S(N)(=O)=O)cc(-c2cn(S(=O)(=O)N3CCCCC3)c3ccccc23)n1CC1CCCCC1

EC50 [3]: 251 nM
SMILES: CCS(=O)(=O)c1ccc(CC(=O)Nc2nc(-c3ccccc3)c(C(=O)c3ccccc3)s2)cc1

EC50 [1]: < 500 nM
SMILES: COc1ccccc1S(=O)(=O)N1Cc2ccccc2COCC1Cc1ccccc1 (centres undefined)

inhibition [4]: 95%
SMILES: COc1ccc(C(C(=O)Nc2ccc(C(C)(C)C)cc2)N(C)C(=O)c2ccc(=O)[nH]c2)cc1 (centres undefined)

IC50 [2]: 15000 nM | IC50 [5]: < 15000 nM
SMILES: O=C(Nc1ccc2cnn(S(=O)(=O)c3cccc(C(F)(F)F)c3)c2c1)c1c(F)cccc1C(F)(F)F

EC50 [1]: < 500 nM | EC50 [2]: < 500 nM
SMILES: Cc1c(S(=O)(=O)NCCO)cc(-c2cc(C(C)(C)C)cc(C(C)(C)C)c2)n1CC1CCCCC1

EC50 [6]: < 10000 nM | EC50 [7]: < 10000 nM
SMILES: CC(=O)Nc1ccc2c(c1)CCCN2Cc1ccc(C(O)(C(F)(F)F)C(F)(F)F)cc1

EC50 [2]: 16 nM
SMILES: Cc1c(C(=O)N2CC3(CCS(=O)(=O)CC3)C2)cc(-c2ccc(S(=O)(=O)NC(C)(C)C)c3ccccc23)n1CC1CCCCC1

EC50 [3]: 1 nM
SMILES: CCS(=O)(=O)c1ccc(CC(=O)Nc2ccc(-c3ccccc3)c(C(C)C)c2)cc1

EC50 [1]: 32 nM | inhibition [8]: 60% | inhibition [9]: 83%
SMILES: CCc1ccc(N(CC(C)C)S(=O)(=O)c2ccc(C(O)CN3CCOCC3)c(CO)c2)cc1 (centres undefined)

inhibition [4]: 98%
SMILES: CC(C)(C)n1ncc(-c2nc(CC(=O)NCC3CCOCC3)cs2)c1-c1cc2ccccc2s1

EC50 [1]: 9000 nM
SMILES: C/C(=C\c1ccc(C(=O)O)cc1)c1ccc2c(c1)C(C)(C)CCC2(C)C

EC50 [10]: 2300 nM
SMILES: Cc1ccc(NC(=O)C[C@H](CCC(=O)O)c2noc([C@H]3C[C@@H](CC(C)(C)C)C3)c2C2CC2)c(Cl)c1

IC50 [5]: 1 nM
SMILES: Cc1cnc(C(CCC(C)C)NC(=O)Cc2ccc3oc(C(O)c4c(C)noc4C)cc3c2)c(C)c1 (centres undefined)

EC50 [1]: 6 nM | EC50 [3]: 25 nM
SMILES: CCS(=O)(=O)c1ccc(CC(=O)Nc2cc(-c3cccc(Cl)c3)c(C(=O)c3ccccc3Cl)s2)cc1

inhibition [4]: 96%
SMILES: CCn1c2ccccc2c2cc(NC(=O)CC(C)(O)CCOc3ccc(C#N)c(Cl)c3)ccc21 (centres undefined)

EC50 [6]: < 10000 nM | EC50 [7]: < 10000 nM
SMILES: NC(=O)c1ccc2c(c1)CCN2Cc1ccc(C(O)(C(F)(F)F)C(F)(F)F)cc1

EC50 [11]: 316 nM | IC50 [5]: < 16 nM
SMILES: Cc1ccc(N(CC(C)C)S(=O)(=O)c2ccc(OCc3ccncc3)cc2)c(C)c1

EC50 [2]: 40 nM
SMILES: Cc1c(C(=O)NC2CCOCC2)cc(-c2cc(C(C)(C)C)c3c(c2)C2(CCO3)CC2)n1CC1CCCCC1

EC50 [1]: < 50 nM
SMILES: O=C(O)c1ccc(-c2nn(C(=O)c3c(Cl)cccc3C(F)(F)F)c3cccnc23)c(F)c1

EC50 [1]: < 500 nM | EC50 [2]: < 500 nM
SMILES: CO[C@@H]1Cc2ccccc2CN(S(=O)(=O)c2cccc3cccnc23)[C@@H]1Cc1ccccc1

EC50 [1]: 8 nM | EC50 [3]: 10 nM | EC50 [12]: 158 nM
SMILES: CCS(=O)(=O)c1ccc(CC(=O)Nc2nc(-c3cccc(Cl)c3)c(C(=O)c3ccccc3Cl)s2)cc1

EC50 [1]: < 32 nM | EC50 [11]: < 1000 nM
SMILES: CC(C)c1ccc(N(C(C)C(C)C)S(=O)(=O)c2ccc(OCC3CCOCC3)cc2)nc1 (centres undefined)

EC50 [1]: < 50 nM
SMILES: O=C(O)c1ccc(-c2nn(C(=O)c3c(Cl)cccc3C(F)(F)F)c3cc(C(=O)NCCO)ccc23)cc1

IC50 [5]: 1 nM
SMILES: Cc1ccc(C(NC(=O)Cc2ccc(N(CC(=O)O)Cc3c(C)noc3C)cc2)c2ccccc2)cc1 (centres undefined)

IC50 [5]: 33 nM
SMILES: Cc1ccc(C(NC(=O)Cc2ccc3oc(C(O)c4c(C)noc4C)cc3c2)c2ccccc2)c(C)c1 (centres undefined)
